In general, IC50 refers to the concentration that gives 50% inhibition. Read a low IC50 as inhibition by little substance.

The assay deals with HER2. The assay is described as follows: HER2 degradation assay with BT-474 cell line (Example 12, FACS). It counts as cell-based, human.
The compound `CCc1c2c(nc3ccc(OC(=O)N4CCC(CCN5CCN(c6ccc(-n7c(O)nnc7-c7cc(C(C)C)c(O)cc7O)cc6)CC5)CC4)cc13)-c1cc3c(c(=O)n1C2)COC(=O)C3(O)CC` (stereo not drawn) [SDC-TRAP-0070, 4,11-diethyl-4-hydroxy-3,14-dioxo-3,4,12,14-tetrahydro-1H-pyrano[3′,4′:6,7]indolizino[1,2-b]quinolin-9-yl 4-(2-(4-(4-(3-(2,4-dihydroxy-5-isopropylphenyl)-5-hydroxy-4H-1,2,4-triazol-4-yl)phenyl)piperazin-1-yl)ethyl)piperidine-1-carboxylate] gave an IC50 of 263 nM.
Consider `CCNC(=O)c1nnc(-c2cc(C(C)C)c(O)cc2O)n1-c1ccc(C(=O)N2CCN(c3ccc(OC(=O)Nc4cccc5c4CN(C4CCC(=O)NC4=O)C5=O)cc3)CC2)cc1` (stereo not drawn), for which 254 nM corresponded to half-maximal inhibition (IC50).
For `CCc1c2c(nc3ccc(O)cc13)-c1cc3c(c(=O)n1C2)COC(=O)C3(CC)OC(=O)C1CCN(C(=O)Cc2ccc(-n3c(O)nnc3-c3cc(C(C)C)c(O)cc3O)cc2)CC1` (stereo not drawn) [SDC-TRAP-0097, 4,11-diethyl-9-hydroxy-3,14-dioxo-3,4,12,14-tetrahydro-1H-pyrano[3′,4′:6,7]indolizino[1,2-b]quinolin-4-yl 1-(2-(4-(3-(2,4-dihydroxy-5-isopropylphenyl)-5-hydroxy-4H-1,2,4-triazol-4-yl)phenyl)acetyl)piperidine-4-carboxylate] the value was above 5000 nM.
For `CCc1c2c(nc3ccc(OC(=O)N4Cc5ccc(-n6c(O)nnc6-c6cc(C(C)C)c(O)cc6O)cc5C4)cc13)-c1cc3c(c(=O)n1C2)COC(=O)C3(O)CC` (stereo not drawn) [SDC-TRAP-0083, 4,11-diethyl-4-hydroxy-3,14-dioxo-3,4,12,14-tetrahydro-1H-pyrano[3′,4′:6,7]indolizino[1,2-b]quinolin-9-yl 5-(3-(2,4-dihydroxy-5-isopropylphenyl)-5-hydroxy-4H-1,2,4-triazol-4-yl)isoindoline-2-carboxylate] the value was 1440 nM; for `CCc1c2c(nc3ccc(O)cc13)-c1cc3c(c(=O)n1C2)COC(=O)C3(CC)OC(=O)C1CCN(C(=O)CN2CCN(c3ccc(-n4c(O)nnc4-c4cc(C(C)C)c(O)cc4O)cc3)CC2)CC1` (stereo not drawn) [SDC-TRAP-0111, 4,11-Diethyl-9-hydroxy-3,14-dioxo-3,4,12,14-tetrahydro-1H-pyrano[3′,4′:6,7]indolizino[1,2-b]quinolin-4-yl 1-(2-(4-(4-(3-(2,4-dihydroxy-5-isopropylphenyl)-5-hydroxy-4H-1,2,4-triazol-4-yl)phenyl)piperazin-1-yl)acetyl)piperidine-4-carboxylate], above 5000 nM.
Regarding `CCc1c2c(nc3ccc(O)cc13)-c1cc3c(c(=O)n1C2)COC(=O)C3(CC)OC(=O)CCC(=O)NCCn1ccc2cc(-n3c(O)nnc3-c3cc(C(C)C)c(O)cc3O)ccc21` (stereo not drawn) [SDC-TRAP-0026], the IC50 was found to be 1780 nM.
Under `CCc1c2c(nc3ccc(OC(=O)N4CCC(N5Cc6ccc(-n7c(O)nnc7-c7cc(C(C)C)c(O)cc7O)cc6C5)CC4)cc13)-c1cc3c(c(=O)n1C2)COC(=O)[C@]3(O)CC` [SDC-TRAP-0089, (S)-4,11-diethyl-4-hydroxy-3,14-dioxo-3,4,12,14-tetrahydro-1H-pyrano[3′,4′:6,7]indolizino[1,2-b]quinolin-9-yl 4-(5-(3-(2,4-dihydroxy-5-isopropylphenyl)-5-hydroxy-4H-1,2,4-triazol-4-yl)isoindolin-2-yl)piperidine-1-carboxylate] stands 1470 nM; under `CCc1c2c(nc3ccc(OC(=O)NCCOCCn4ccc5cc(-n6c(O)nnc6-c6cc(C(C)C)c(O)cc6O)ccc54)cc13)-c1cc3c(c(=O)n1C2)COC(=O)C3(O)CC` (stereo not drawn) [SDC-TRAP-0016, 4,11-diethyl-4-hydroxy-3,14-dioxo-3,4,12,14-tetrahydro-1H-pyrano[3′,4′:6,7]indolizino[1,2-b]quinolin-9-yl (2-(2-(5-(3-(2,4-dihydroxy-5-isopropylphenyl)-5-hydroxy-4H-1,2,4-triazol-4-yl)-1H-indol-1-yl)ethoxy)ethyl)carbamate], above 5000 nM; under `CCc1c2c(nc3ccc(OC(=O)N4CCC(c5nc6cc(-n7c(O)nnc7-c7cc(C(C)C)c(O)cc7O)ccc6n5C)CC4)cc13)-c1cc3c(c(=O)n1C2)COC(=O)C3(O)CC` (stereo not drawn) [SDC-TRAP-0095, 4,11-diethyl-4-hydroxy-3,14-dioxo-3,4,12,14-tetrahydro-1H-pyrano[3′,4′:6,7]indolizino[1,2-b]quinolin-9-yl 4-(5-(3-(2,4-dihydroxy-5-isopropylphenyl)-5-hydroxy-4H-1,2,4-triazol-4-yl)-1-methyl-1H-benzo[d]imidazol-2-yl)piperidine-1-carboxylate], above 5000 nM.
Under `CCc1c2c(nc3ccc(OC(C)=O)cc13)-c1cc3c(c(=O)n1C2)COC(=O)C3(CC)OC(=O)N1CCN(Cc2ccc(-n3c(O)nnc3-c3cc(C(C)C)c(O)cc3O)cc2)CC1` (stereo not drawn) [SDC-TRAP-0074, 9-acetoxy-4,11-diethyl-3,14-dioxo-3,4,12,14-tetrahydro-1H-pyrano[3′,4′:6,7]indolizino[1,2-b]quinolin-4-yl 4-(4-(3-(2,4-dihydroxy-5-isopropylphenyl)-5-hydroxy-4H-1,2,4-triazol-4-yl)benzyl) piperazine-1-carboxylate] stands 4120 nM.
For the compound `Cc1cc(C(=O)N2CCN(Cc3ccc(-n4c(O)nnc4-c4cc(C(C)C)c(O)cc4O)cc3F)CC2)cc(C)c1OC(=O)Nc1cccc2c1CN(C1CCC(=O)NC1=O)C2=O` (stereo not drawn) [SDC-TRAP-0168, 4-(4-(4-(3-(2,4-dihydroxy-5-isopropylphenyl)-5-hydroxy-4H-1,2,4-triazol-4-yl)-2-fluorobenzyl)piperazine-1-carbonyl)-2,6-dimethylphenyl (2-(2,6-dioxopiperidin-3-yl)-1-oxoisoindolin-4-yl)carbamate], half-maximal inhibition (IC50) required 276 nM.
Under `CCc1c2c(nc3ccc(OC(=O)N(C)CC(=O)N4CCC(CCn5ccc6cc(-n7c(O)nnc7-c7cc(C(C)C)c(O)cc7O)ccc65)CC4)cc13)-c1cc3c(c(=O)n1C2)COC(=O)[C@]3(O)CC` [SDC-TRAP-0207, (S)-4,11-diethyl-4-hydroxy-3,14-dioxo-3,4,12,14-tetrahydro-1H-pyrano[3′,4′:6,7]indolizino[1,2-b]quinolin-9-yl (2-(4-(2-(5-(3-(2,4-dihydroxy-5-isopropylphenyl)-5-hydroxy-4H-1,2,4-triazol-4-yl)-1H-indol-1-yl)ethyl)piperidin-1-yl)-2-oxoethyl)(methyl)carbamate] stands above 5000 nM; under `CCNC(=O)c1nnc(-c2cc(C(C)C)c(O)cc2O)n1-c1ccc(CN2CCC(C(=O)N(C)CCC(=O)OC3(CC)C(=O)OCc4c3cc3n(c4=O)Cc4c-3nc3ccc(O)cc3c4CC)CC2)cc1` (stereo not drawn) [SDC-TRAP-0100, 4,11-Diethyl-9-hydroxy-3,14-dioxo-3,4,12,14-tetrahydro-1H-pyrano[3′,4′:6,7]indolizino[1,2-b]quinolin-4-yl 3-(1-(4-(3-(2,4-dihydroxy-5-isopropylphenyl)-5-(ethylcarbamoyl)-4H-1,2,4-triazol-4-yl)benzyl)-N-methylpiperidine-4-carboxamido)propanoate], 80 nM; under `CCc1c2c(nc3ccc(OC(=O)N4CCC(CCc5ccc(-n6c(O)nnc6-c6cc(C(C)C)c(O)cc6O)cc5)CC4)cc13)-c1cc3c(c(=O)n1C2)COC(=O)[C@]3(O)CC` [SDC-TRAP-0086, (S)-4,11-diethyl-4-hydroxy-3,14-dioxo-3,4,12,14-tetrahydro-1H-pyrano[3′,4′:6,7]indolizino[1,2-b]quinolin-9-yl 4-(4-(3-(2,4-dihydroxy-5-isopropylphenyl)-5-hydroxy-4H-1,2,4-triazol-4-yl)phenethyl)piperidine-1-carboxylate], above 5000 nM.
Under `CCc1c2c(nc3ccc(OC(=O)N4CCC(N5CCN(c6ccc(-n7c(O)nnc7-c7cc(C(C)C)c(O)cc7O)cc6)CC5)CC4)cc13)-c1cc3c(c(=O)n1C2)COC(=O)C3(O)CC` (stereo not drawn) [SDC-TRAP-0101, 4,11-diethyl-4-hydroxy-3,14-dioxo-3,4,12,14-tetrahydro-1H-pyrano[3′,4′:6,7]indolizino[1,2-b]quinolin-9-yl 4-(4-(4-(3-(2,4-dihydroxy-5-isopropylphenyl)-5-hydroxy-4H-1,2,4-triazol-4-yl)phenyl)piperazin-1-yl)piperidine-1-carboxylate] stands 280 nM; under `CCc1c2c(nc3ccc(O)cc13)-c1cc3c(c(=O)n1C2)COC(=O)[C@@]3(CC)OC(=O)N(C)CCN1CCN(Cc2ccc(-n3c(O)nnc3-c3cc(C(C)C)c(O)cc3O)cc2)CC1` [SDC-TRAP-0087, (S)-4,11-diethyl-9-hydroxy-3,14-dioxo-3,4,12,14-tetrahydro-1H-pyrano[3′,4′:6,7]indolizino[1,2-b]quinolin-4-yl (2-(4-(4-(3-(2,4-dihydroxy-5-isopropylphenyl)-5-hydroxy-4H-1,2,4-triazol-4-yl)benzyl)piperazin-1-yl)ethyl)(methyl)carbamate], 535 nM.
Under `CCc1c2c(nc3ccc(O)cc13)-c1cc3c(c(=O)n1C2)COC(=O)C3(CC)OC(=O)N1CCN(C(=O)CCc2ccc(-n3c(O)nnc3-c3cc(C(C)C)c(O)cc3O)cc2)CC1` (stereo not drawn) [SDC-TRAP-0060, 4,11-diethyl-9-hydroxy-3,14-dioxo-3,4,12,14-tetrahydro-1H-pyrano[3′,4′:6,7]indolizino[1,2-b]quinolin-4-yl 4-(3-(4-(3-(2,4-dihydroxy-5-isopropylphenyl)-5-hydroxy-4H-1,2,4-triazol-4-yl)phenyl)propanoyl)piperazine-1-carboxylate] stands above 5000 nM.
`CCc1c2c(nc3ccc(OC(=O)N4CCN(C(=O)c5cc6cc(-n7c(O)nnc7-c7cc(C(C)C)c(O)cc7O)ccc6n5C)CC4)cc13)-c1cc3c(c(=O)n1C2)COC(=O)C3(O)CC` (stereo not drawn) [SDC-TRAP-0072, 4,11-diethyl-4-hydroxy-3,14-dioxo-3,4,12,14-tetrahydro-1H-pyrano[3′,4′:6,7]indolizino[1,2-b]quinolin-9-yl 4-(5-(3-(2,4-dihydroxy-5-isopropylphenyl)-5-hydroxy-4H-1,2,4-triazol-4-yl)-1-methyl-1H-indole-2-carbonyl)piperazine-1-carboxylate] yielded a half-maximal inhibitory concentration (IC50) above 5000 nM.

(Values after patent US10828315B2 (Madrigal Pharmaceuticals, Inc., priority 2013, dated 2020).)
